Series [1] has as its system National Cancer Institute's (NCI) panel of 60 human tumor cell lines. The following applies: mean over the entire NCI 60 human tumor cell line panel; cited from earlier work.
In series [2] the test system is human cancer cell lines BXP-3, MCF-3, F-268, NCl-H460, KM20L2, DU-145. The series is described as follows: Cancer growth inhibition, average over the six human cancer cell line panel. Format: cell-based. The note with it: for GI50: Homo sapiens, average over six human cancer cell lines; for tumor cell growth inhibitory activity compared with (+)-phorboxazole A (in words): summary of the six cell line panel. Here is the method:
(§1) With (+)-phorboxazole A (XVIII) and the eight phorboxazole analogues in hand, biological evaluation against a diverse panel of human cancer cell lines was conducted in the laboratory of Professor George R. Pettit at the Cancer Research Institute of Arizona State University. Specifically, cancer growth inhibition efficacy was evaluated against the human cancer cell lines; BXP-3 (pancreatic), MCF-3 (breast), F-268 (CNS), NCl-H460 (non-small lung), KM20L2 (colon), and DU-145 (prostate) (Smith, et al. Org. Lett. 2005, 7, 4403; Smith, et al. Org. Lett. 2005, 8, 797).

The conditions of series [3]: other bond, K2CO3/18-crown-6, toluene, 25.0 °C.
The subject of the next series is KM20L2 (colon). The experiment in a line: Cancer growth inhibition, colon cancer cell line. Format: cell-based. The note with it: Homo sapiens, KM-20L2. Here is the method:
as §1

In series [4] the test system is NCl-H460 (non-small lung). The series is described as follows: Cancer growth inhibition, non-small lung cancer cell line. Format: cell-based. The following applies: Homo sapiens. Here is the method: as §1
A further series relates to MCF-3 (breast). The series is described as follows: Cancer growth inhibition, breast cancer cell line. Format: cell-based. The following applies: Homo sapiens. Here is the method:
as §1

The test system of the next series is BXP-3 (pancreatic). The experiment in a line: Cancer growth inhibition, pancreatic cancer cell line. Type of series: cell-based. The following applies: Homo sapiens. Here is the method:
as §1

The next series deals with F-268 (CNS). The experiment in a line: Cancer growth inhibition, CNS cancer cell line. Type of series: cell-based. The note with it: Homo sapiens. Here is the method: as §1

Structures are written as SMILES. Like-named read-outs stand apart in the source and are kept apart here.

Broadly, the GI50 is the concentration at which growth is held to half of that of the control.

As for `C=C1C[C@@H]2C[C@H]3C[C@@H](O)C[C@H](O3)c3coc(n3)/C=C\C[C@H]3O[C@@H](/C(C)=C/c4coc(C[C@]5(O)C[C@H](OC)C[C@H]([C@H](O)/C=C(C)/C=C/[C@@H](C/C=C/Br)OC)O5)n4)[C@H](C)[C@@H](OC(=O)/C=C\C[C@@H](C1)O2)[C@H]3C` [(+)-Phorboxazole B, Phorboxazole B], the GI50 in series [1] is 1.58 nM.
In the case of `C=CC[C@H](/C=C/C(C)=C/[C@@H](O)[C@H]1C[C@@H](OC)C[C@](Cc2nc(/C=C(\C)[C@@H]3O[C@H](CCO)[C@H](C)[C@H](OCc4ccc(OC)c(OC)c4)[C@H]3C)co2)(OC)O1)OC` [XVIIe, C(45-46)-Alkenyl-C(22-26)-Central Tetrahydropyran Phorboxazole], in series [2] (six human cancer cell lines), the “activity across the entire cell line panel (in words)” value is “inactive”.
In series [3] (from C=C1C[C@H](C[C@@H]2CCO[C@H](c3coc(/C=C/C[C@H]4O[C@@H](/C(C)=C/I)[C@H](C)[C@@H](OC(=O)CP(=O)(OCC(F)(F)F)OCC(F)(F)F)[C@H]4C)n3)O2)O[C@@H](CC=O)C1, 0.74 mM, 2.0 h), `C=C1C[C@@H]2C[C@@H]3CCO[C@@H](O3)c3coc(n3)/C=C/C[C@H]3O[C@@H](/C(C)=C/I)[C@H](C)[C@@H](OC(=O)/C=C\C[C@@H](C1)O2)[C@H]3C` returned a ring closure, yield of all isomers of 86%.
`C=C1C[C@@H]2C[C@@H]3C[C@@H](O)C[C@@H](O3)c3coc(n3)/C=C/C[C@H]3O[C@@H](/C(C)=C/c4coc(C[C@]5(O)C[C@H](OC)C[C@H]([C@H](O)/C=C(C)/C=C/[C@@H](CCC)OC)O5)n4)[C@H](C)[C@@H](OC(=O)/C=C\C[C@@H](C1)O2)[C@H]3C` [XVIIb, C(45-46)-Alkyl-Phorboxazole]: the figures for the GI50 (in series [2]; with KM20L2 (colon); in series [4]) were 3.1 nM, 1.3 nM and 1.6 nM, respectively. Moreover, in series [2], the “tumor cell growth inhibitory activity compared with (+)-phorboxazole A (in words)” value was “activity comparable to that of (+)-phorboxazole A”.
On to `C=CC[C@H](/C=C/C(C)=C/[C@@H](O)[C@H]1C[C@@H](OC)C[C@@](O)(Cc2nc(/C=C(\C)[C@@H]3O[C@@H]4C/C=C/c5nc(co5)[C@H]5C[C@H](O)C[C@@H](C[C@H]6CC(=C)C[C@H](C/C=C\C(=O)O[C@@H]([C@H]4C)[C@H]3C)O6)O5)co2)O1)OC` [XVIIc, C(45-46)-Alkenyl-Phorboxazole], for which, in series [2], the GI50 was 4.1 nM and the “tumor cell growth inhibitory activity compared with (+)-phorboxazole A (in words)” value is on record as “activity comparable to that of (+)-phorboxazole A”.
In series [2], `C#CC[C@H](/C=C/C(C)=C/[C@@H](O)[C@H]1C[C@@H](OC)C[C@@](O)(Cc2nc(/C=C(\C)[C@@H]3O[C@@H]4C/C=C/c5nc(co5)[C@H]5OCC[C@@H](C[C@H]6CC(=C)C[C@H](C/C=C/C(=O)O[C@@H]([C@H]4C)[C@H]3C)O6)O5)co2)O1)OC` [XVIIfE, E-C(2-3) C(11-15)-Acetal Alkynyl Phorboxazole] had a GI50 of 944 nM.
Take `C#CC[C@H](/C=C/C(C)=C/[C@@H](O)[C@H]1C[C@@H](OC)C[C@@](O)(Cc2nc(/C=C(\C)[C@@H]3O[C@@H]4C/C=C/c5nc(co5)[C@H]5C[C@H](O)C[C@@H](C[C@H]6CC(=C)C[C@H](C/C=C\C(=O)O[C@@H]([C@H]4C)[C@H]3C)O6)O5)co2)O1)OC` [XVIIaZ, C(45-46)-Alkynyl-Phorboxazole]: in series [2], the concentration for 50% growth inhibition (GI50) stood at 5.2 nM and the “tumor cell growth inhibitory activity compared with (+)-phorboxazole A (in words)” value is recorded as “activity comparable to that of (+)-phorboxazole A”.
`C=C1C[C@@H]2C[C@@H]3C[C@@H](O[Si](C)(C)C(C)(C)C)C[C@@H](O3)c3coc(n3)/C=C/C[C@H]3O[C@@H](/C(C)=C/I)[C@H](C)[C@@H](OC(=O)/C=C\C[C@@H](C1)O2)[C@H]3C` registered a ring closure, yield of all isomers in series [3] (from C=C1C[C@H](C[C@@H]2C[C@@H](O[Si](C)(C)C(C)(C)C)C[C@H](c3coc(/C=C/C[C@H]4O[C@@H](/C(C)=C/I)[C@H](C)[C@@H](OC(=O)CP(=O)(OCC(F)(F)F)OCC(F)(F)F)[C@H]4C)n3)O2)O[C@@H](CC=O)C1, 0.706 mM, 3.0 h) of 96%.
With `C#CC[C@H](/C=C/C(C)=C/[C@@H](O)[C@H]1C[C@@H](OC)C[C@@](O)(Cc2nc(/C=C(\C)[C@@H]3O[C@@H]4C/C=C/c5nc(co5)[C@H]5OCC[C@@H](C[C@H]6CC(=C)C[C@H](C/C=C\C(=O)O[C@@H]([C@H]4C)[C@H]3C)O6)O5)co2)O1)OC` [XVIIfZ, Z-C(2-3) C(11-15)-Acetal Alkynyl Phorboxazole], the GI50 in series [2] is 34.6 nM; in the series on KM20L2 (colon), 11.8 nM; in the series with MCF-3 (breast), 18.3 nM.
With `C#CC[C@H](/C=C/C(C)=C/[C@@H](O)[C@H]1C[C@@H](OC)C[C@@](O)(Cc2nc(/C=C(\C)[C@@H]3O[C@@H]4C/C=C/c5nc(co5)[C@H]5C[C@H](O)C[C@@H](C[C@H]6CC(=C)C[C@H](C/C=C/C(=O)O[C@@H]([C@H]4C)[C@H]3C)O6)O5)co2)O1)OC` [XVIIaE, E-C(2-3)-C(45-46)-Alkynyl-Phorboxazole], the concentration for 50% growth inhibition (GI50) in series [2] was 281 nM.
As for `C=C1C[C@@H]2C[C@@H]3C[C@@H](O)C[C@@H](O3)c3coc(n3)/C=C/C[C@H]3O[C@@H](/C(C)=C/c4coc(C[C@]5(O)C[C@H](OC)C[C@H]([C@H](O)/C=C(C)/C=C/[C@@H](C/C=C/Cl)OC)O5)n4)[C@H](C)[C@@H](OC(=O)/C=C\C[C@@H](C1)O2)[C@H]3C` [XVIId, C(45-46)-E-Chloroalkenyl-Phorboxazole], in series [2], the “tumor cell growth inhibitory activity compared with (+)-phorboxazole A (in words)” value is “activity greater than that of (+)-phorboxazole A”. The concentration for 50% growth inhibition (GI50) came to 0.38 nM in the series with KM20L2 (colon), 0.64 nM in series [4], 0.62 nM with BXP-3 (pancreatic) and 0.49 nM in the series with F-268 (CNS).
For `C=C1C[C@@H]2C[C@@H]3C[C@@H](O)C[C@@H](O3)c3coc(n3)/C=C/C[C@H]3O[C@@H](/C(C)=C/c4coc(C[C@]5(O)C[C@H](OC)C[C@H]([C@H](O)/C=C(C)/C=C/[C@@H](C/C=C/Br)OC)O5)n4)[C@H](C)[C@@H](OC(=O)/C=C\C[C@@H](C1)O2)[C@H]3C` [XVIII, Phorboxazole A, reference compound], the GI50 in series [1] is 1.58 nM; in series [2], 5 nM.

(Values after patent US7485631B2, “Phorboxazole compounds and methods of their preparation” (The Trustees of the University of Pennsylvania, priority 2005, dated 2009).)
